According to ChEMBL document CHEMBL3603836, “Hybrid pyrimidine alkynyls inhibit the clinically resistance related Bcr-Abl(T315I) mutant” (Bioorg Med Chem Lett, 2015):
The source made the active and inactive calls. The rule behind the calls is not given here.

How the values were obtained:
[1] = test system: BaF3; assay: Antitumor activity against mouse BA/F3 cells expressing Bcr-Abl T315I mutant allografted in mouse assessed as tumor regression at 30 mg/kg, qd for 16 days; type: functional, organism-based
[2] = test system: K562; assay: Induction of apoptosis in human K562 cells expressing wild type Bcr-Abl assessed as late apoptotic cells at 0.8 nM after 24 hrs using annexin-V/7-AAD staining by FACS analysis (reference value: 2.1%); type: functional
[3] = Cell cycle arrest in mouse BA/F3 cells expressing Bcr-Abl T315I mutant assessed as accumulation at G0/G1 phase after 24 hrs using propidium iodide staining by flow cytometry; type: functional, cell-based; conditions: BaF3
[4] = test system: K562; assay: Antitumor activity against human K562 cells expressing wild type Bcr-Abl xenografted in po dosed mouse assessed as tumor growth inhibition administered qd for 16 days; type: functional, organism-based
[5] = cells; conditions: Mus musculus, BaF3, 72 h
[6] = test system: BaF3; assay: Induction of apoptosis in mouse BA/F3 cells expressing Bcr-Abl T315I mutant assessed as late apoptotic cells at 100 nM after 24 hrs using annexin-V/7-AAD staining by FACS analysis (reference value: 2.2%); type: functional
[7] = test system: K562; assay: Induction of apoptosis in human K562 cells expressing wild type Bcr-Abl assessed as late apoptotic cells after 24 hrs using annexin-V/7-AAD staining by FACS analysis; type: functional, cell-based
[8] = test system: K562; assay: Cell cycle arrest in human K562 cells expressing wild type Bcr-Abl assessed as accumulation at G0/G1 phase at 20 nM after 24 hrs using propidium iodide staining by flow cytometry (reference value: 64.03%); type: functional
[9] = test system: BaF3; assay: Induction of apoptosis in mouse BA/F3 cells expressing Bcr-Abl T315I mutant assessed as late apoptotic cells at 500 nM after 24 hrs using annexin-V/7-AAD staining by FACS analysis (reference value: 2.2%); type: functional
[10] = test system: Tyrosine-protein kinase ABL1 (Mus musculus), P00520 [T315I]; assay: Inhibition of Bcr-Abl T315I mutant in mouse BA/F3 cells assessed as total protein level of STAT5 at 4 to 500 nM after 4 hrs by Western blot analysis; type: cell-based; conditions: BaF3
Chain of Tyrosine-protein kinase ABL1 (Mus musculus), P00520 [T315I] (P00520 whole entry T315I): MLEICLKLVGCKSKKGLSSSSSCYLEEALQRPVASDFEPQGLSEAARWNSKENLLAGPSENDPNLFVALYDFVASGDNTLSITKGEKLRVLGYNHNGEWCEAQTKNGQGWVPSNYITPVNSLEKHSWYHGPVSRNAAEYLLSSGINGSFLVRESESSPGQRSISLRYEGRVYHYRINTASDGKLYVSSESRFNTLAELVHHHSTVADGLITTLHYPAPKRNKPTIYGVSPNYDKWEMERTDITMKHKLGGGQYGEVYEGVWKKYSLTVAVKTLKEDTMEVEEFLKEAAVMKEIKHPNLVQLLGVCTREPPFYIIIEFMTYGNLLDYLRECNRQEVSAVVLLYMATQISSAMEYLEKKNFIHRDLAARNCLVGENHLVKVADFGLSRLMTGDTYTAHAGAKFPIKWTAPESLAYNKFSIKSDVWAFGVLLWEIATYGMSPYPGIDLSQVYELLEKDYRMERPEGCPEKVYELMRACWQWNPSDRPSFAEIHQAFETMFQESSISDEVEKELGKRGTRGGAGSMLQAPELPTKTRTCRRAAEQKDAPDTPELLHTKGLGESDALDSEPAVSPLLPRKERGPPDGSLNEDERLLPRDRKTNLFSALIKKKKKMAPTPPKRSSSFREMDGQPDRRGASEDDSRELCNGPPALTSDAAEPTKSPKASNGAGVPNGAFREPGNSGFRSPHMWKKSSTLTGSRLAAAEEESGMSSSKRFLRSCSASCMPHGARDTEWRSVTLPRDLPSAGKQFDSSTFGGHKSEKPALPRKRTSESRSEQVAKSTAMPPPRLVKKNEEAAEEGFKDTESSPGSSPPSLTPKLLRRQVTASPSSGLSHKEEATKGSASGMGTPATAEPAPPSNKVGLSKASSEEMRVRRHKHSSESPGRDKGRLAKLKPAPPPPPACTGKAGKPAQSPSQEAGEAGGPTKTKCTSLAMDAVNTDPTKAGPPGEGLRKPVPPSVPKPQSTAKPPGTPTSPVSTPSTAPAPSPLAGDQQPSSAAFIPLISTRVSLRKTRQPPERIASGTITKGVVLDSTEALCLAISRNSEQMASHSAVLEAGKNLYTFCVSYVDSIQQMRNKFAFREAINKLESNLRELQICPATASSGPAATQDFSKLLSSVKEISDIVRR

[11] = test system: K562; assay: Cell cycle arrest in human K562 cells expressing wild type Bcr-Abl assessed as accumulation at G0/G1 phase at 4 nM after 24 hrs using propidium iodide staining by flow cytometry (reference value: 64.03%); type: functional
[12] = test system: BaF3; assay: Induction of apoptosis in mouse BA/F3 cells expressing Bcr-Abl T315I mutant assessed as early apoptotic cells after 24 hrs using annexin-V/7-AAD staining by FACS analysis; type: functional, cell-based
[13] = test system: Mus musculus; assay: Toxicity in human K562 cells expressing wild type Bcr-Abl xenografted mouse assessed as change in body weight at 3.3 to 10 mg/kg, po qd for 16 days relative to control; type: organism-based; conditions: in vivo, 384 h
[14] = test system: K562; assay: Cell cycle arrest in human K562 cells expressing wild type Bcr-Abl assessed as accumulation at G0/G1 phase at 0.8 nM after 24 hrs using propidium iodide staining by flow cytometry (reference value: 64.03%); type: functional
[15] = test system: BaF3; assay: Induction of apoptosis in mouse BA/F3 cells expressing Bcr-Abl T315I mutant assessed as late apoptotic cells after 24 hrs using annexin-V/7-AAD staining by FACS analysis; type: functional, cell-based
[16] = test system: K562; assay: Cell cycle arrest in human K562 cells expressing wild type Bcr-Abl assessed as accumulation at G0/G1 phase at 100 nM after 24 hrs using propidium iodide staining by flow cytometry (reference value: 64.03%); type: functional
[17] = test system: K562; assay: Induction of apoptosis in human K562 cells expressing wild type Bcr-Abl assessed as late apoptotic cells at 4 nM after 24 hrs using annexin-V/7-AAD staining by FACS analysis (reference value: 2.1%); type: functional
[18] = test system: K562; assay: Antitumor activity against human K562 cells expressing wild type Bcr-Abl xenografted in mouse assessed as sign of tumor recurrence at 10 mg/kg, po qd for 16 days measured after 7 days of last dose; type: functional, organism-based
[19] = test system: K562; assay: Induction of apoptosis in human K562 cells expressing wild type Bcr-Abl assessed as late apoptotic cells at 20 nM after 24 hrs using annexin-V/7-AAD staining by FACS analysis (reference value: 2.1%); type: functional
[20] = test system: Mus musculus; assay: Toxicity in human K562 cells expressing wild type Bcr-Abl xenografted mouse assessed as mortality at 3.3 to 10 mg/kg, po qd for 16 days; type: organism-based; conditions: in vivo, 384 h
[21] = test system: Tyrosine-protein kinase ABL1 (Mus musculus), P00520 [T315I]; assay: Inhibition of Bcr-Abl T315I mutant in mouse BA/F3 cells assessed as reduction of CRKL phosphorylation at 4 to 500 nM after 4 hrs by Western blot analysis; type: cell-based; conditions: BaF3
[22] = test system: BaF3; assay: Antitumor activity against mouse BA/F3 cells expressing Bcr-Abl T315I mutant allografted in mouse assessed as tumor growth inhibition at 10 mg/kg, qd for 16 days; type: functional, organism-based
[23] = test system: Rattus norvegicus; assay: AUC (0 to infinity) in Sprague-Dawley rat at 25 mg/kg, po; type: ADME, organism-based; parameters: dose 25 mg/kg, time infinity, route oral; conditions: in vivo
[24] = Cell cycle arrest in mouse BA/F3 cells expressing Bcr-Abl T315I mutant assessed as accumulation at G0/G1 phase at 20 nM after 24 hrs using propidium iodide staining by flow cytometry (reference value: 51.92%); type: functional, cell-based; conditions: BaF3
[25] = test system: K562; assay: Induction of apoptosis in human K562 cells expressing wild type Bcr-Abl assessed as early apoptotic cells at 100 nM after 24 hrs using annexin-V/7-AAD staining by FACS analysis (reference value: 7.3%); type: functional
[26] = Cell cycle arrest in mouse BA/F3 cells expressing Bcr-Abl T315I mutant assessed as accumulation at G0/G1 phase at 500 nM after 24 hrs using propidium iodide staining by flow cytometry (reference value: 51.92%); type: functional, cell-based; conditions: BaF3
[27] = test system: K562; assay: Cell cycle arrest in human K562 cells expressing wild type Bcr-Abl assessed as accumulation at G0/G1 phase after 24 hrs using propidium iodide staining by flow cytometry; type: functional, cell-based
[28] = test system: Tyrosine-protein kinase ABL1 (Mus musculus), P00520 [T315I]; assay: Inhibition of Bcr-Abl T315I mutant in mouse BA/F3 cells assessed as total protein level of Bcr-Abl at 4 to 500 nM after 4 hrs by Western blot analysis; type: cell-based; conditions: BaF3
[29] = test system: K562; assay: Induction of apoptosis in human K562 cells expressing wild type Bcr-Abl assessed as late apoptotic cells at 100 nM after 24 hrs using annexin-V/7-AAD staining by FACS analysis (reference value: 2.1%); type: functional
[30] = test system: Rattus norvegicus; assay: AUC (0 to infinity) in Sprague-Dawley rat at 10 mg/kg, iv; type: ADME, organism-based; parameters: dose 10 mg/kg, time infinity, route intravenous; conditions: in vivo
[31] = molecular target: Bcr/Abl fusion protein (Homo sapiens, UniProt P00519); type: protein assay
Chain of Bcr/Abl fusion protein (P00519 whole entry, the tested form may be a part): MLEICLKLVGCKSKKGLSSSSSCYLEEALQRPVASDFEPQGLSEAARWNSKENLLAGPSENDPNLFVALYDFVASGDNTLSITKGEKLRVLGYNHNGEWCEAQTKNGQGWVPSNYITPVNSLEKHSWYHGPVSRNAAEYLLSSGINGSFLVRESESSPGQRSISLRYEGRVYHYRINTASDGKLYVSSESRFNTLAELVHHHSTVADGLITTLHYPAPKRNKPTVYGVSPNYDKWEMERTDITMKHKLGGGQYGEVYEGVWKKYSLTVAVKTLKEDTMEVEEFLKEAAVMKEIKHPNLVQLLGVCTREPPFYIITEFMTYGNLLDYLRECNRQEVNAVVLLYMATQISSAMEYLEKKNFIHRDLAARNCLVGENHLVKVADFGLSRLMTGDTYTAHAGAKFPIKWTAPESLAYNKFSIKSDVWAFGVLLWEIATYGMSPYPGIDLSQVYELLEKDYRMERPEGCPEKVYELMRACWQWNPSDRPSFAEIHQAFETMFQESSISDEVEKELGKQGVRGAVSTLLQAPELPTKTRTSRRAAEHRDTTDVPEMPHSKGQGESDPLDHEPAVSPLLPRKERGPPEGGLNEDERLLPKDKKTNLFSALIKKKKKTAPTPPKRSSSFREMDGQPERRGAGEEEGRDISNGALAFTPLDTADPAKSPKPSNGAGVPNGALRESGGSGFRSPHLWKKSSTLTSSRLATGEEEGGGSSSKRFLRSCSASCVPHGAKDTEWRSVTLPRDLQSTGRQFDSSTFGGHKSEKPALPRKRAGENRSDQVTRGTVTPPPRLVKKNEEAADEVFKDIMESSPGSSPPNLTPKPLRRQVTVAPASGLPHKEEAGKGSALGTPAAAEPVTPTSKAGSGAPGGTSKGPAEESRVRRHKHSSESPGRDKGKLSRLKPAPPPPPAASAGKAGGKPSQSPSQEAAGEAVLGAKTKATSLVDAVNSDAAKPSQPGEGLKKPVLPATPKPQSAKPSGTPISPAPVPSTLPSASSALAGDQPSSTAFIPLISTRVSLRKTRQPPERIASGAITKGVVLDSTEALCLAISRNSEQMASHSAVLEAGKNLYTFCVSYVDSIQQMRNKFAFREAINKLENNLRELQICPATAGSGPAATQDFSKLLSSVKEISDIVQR
Chain of Bcr/Abl fusion protein (P11274 whole entry, further chain, the tested form may be a part): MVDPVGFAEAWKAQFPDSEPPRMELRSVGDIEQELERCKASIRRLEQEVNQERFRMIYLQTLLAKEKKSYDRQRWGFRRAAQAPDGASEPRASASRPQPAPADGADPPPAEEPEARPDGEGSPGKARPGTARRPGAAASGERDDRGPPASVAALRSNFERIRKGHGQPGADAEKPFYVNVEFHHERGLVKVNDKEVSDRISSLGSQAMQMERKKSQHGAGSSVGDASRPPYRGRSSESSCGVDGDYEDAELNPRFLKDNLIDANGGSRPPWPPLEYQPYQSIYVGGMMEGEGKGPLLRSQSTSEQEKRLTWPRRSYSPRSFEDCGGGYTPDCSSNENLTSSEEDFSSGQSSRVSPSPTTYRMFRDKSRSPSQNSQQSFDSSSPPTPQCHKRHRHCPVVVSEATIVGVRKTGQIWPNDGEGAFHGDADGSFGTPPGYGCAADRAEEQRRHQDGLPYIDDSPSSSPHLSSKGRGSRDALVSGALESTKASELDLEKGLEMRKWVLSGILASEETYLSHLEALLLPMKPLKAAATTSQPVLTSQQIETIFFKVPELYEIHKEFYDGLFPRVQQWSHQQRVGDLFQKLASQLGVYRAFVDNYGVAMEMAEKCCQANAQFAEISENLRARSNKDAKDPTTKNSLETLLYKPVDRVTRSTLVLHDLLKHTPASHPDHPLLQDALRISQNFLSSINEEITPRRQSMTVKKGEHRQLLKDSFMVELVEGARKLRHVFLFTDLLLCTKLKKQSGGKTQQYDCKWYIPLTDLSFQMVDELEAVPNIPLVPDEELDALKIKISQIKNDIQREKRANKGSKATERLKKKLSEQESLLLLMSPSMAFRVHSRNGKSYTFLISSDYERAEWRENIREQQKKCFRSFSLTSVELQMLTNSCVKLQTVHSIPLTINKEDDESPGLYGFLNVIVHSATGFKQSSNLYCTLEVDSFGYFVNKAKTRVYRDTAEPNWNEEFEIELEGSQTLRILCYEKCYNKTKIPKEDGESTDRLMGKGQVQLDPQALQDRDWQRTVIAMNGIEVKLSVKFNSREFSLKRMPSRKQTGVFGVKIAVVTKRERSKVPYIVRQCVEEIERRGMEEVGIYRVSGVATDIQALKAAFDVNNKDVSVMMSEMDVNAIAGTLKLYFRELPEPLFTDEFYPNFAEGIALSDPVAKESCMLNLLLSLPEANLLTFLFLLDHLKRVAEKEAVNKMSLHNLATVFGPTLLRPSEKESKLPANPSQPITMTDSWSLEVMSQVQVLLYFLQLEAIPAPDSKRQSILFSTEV
Description: Inhibition of wild type Bcr-Abl (unknown origin) using Tyr2 peptide substrate after 2 hrs by FRET-based Z'-lyte assay

[32] = test system: BaF3; assay: Antitumor activity against mouse BA/F3 cells expressing Bcr-Abl T315I mutant allografted in po dosed mouse assessed as tumor growth inhibition administered qd for 16 days; type: functional, organism-based
[33] = test system: BaF3; assay: Induction of apoptosis in mouse BA/F3 cells expressing Bcr-Abl T315I mutant assessed as early apoptotic cells at 500 nM after 24 hrs using annexin-V/7-AAD staining by FACS analysis (reference value: 4.6%); type: functional
[34] = test system: K562; assay: cells; conditions: Homo sapiens, K562, 72 h
Description: Antiproliferative activity against human K562 cells expressing wild type Bcr-Abl after 72 hrs by CCK-8 assay

Cc1cn(-c2cc(NC(=O)c3ccc(C)c(C#Cc4cnc(NC5CC5)nc4)c3)cc(C(F)(F)F)c2)cn1
Activity [1]: Active
Activity [2]: 1.7%
Activity [3]: Dose-dependent effect
growth inhibition (GI) [4]: Dose-dependent effect
IC50 [5]: 50 nM
Activity [6]: 4%
Activity [7]: Dose-dependent effect
Activity [8]: 87.03%
Activity [9]: 4.3%
inhibition [10]: inactive
Activity [11]: 85.99%
Activity [12]: Dose-dependent effect
Activity [13]: < 5%
Activity [14]: 67.61%
Activity [15]: Dose-dependent effect
Activity [16]: 91.44%
Activity [17]: 2%
Activity [18]: inactive
Activity [19]: 2.5%
Activity [20]: Non-toxic
inhibition [21]: Active
Activity [22]: inactive
AUC [23]: 251684 µg/L/h
Activity [24]: 58.9%
Activity [25]: 73.6%
Activity [26]: 70.2%
Activity [27]: Dose-dependent effect
inhibition [28]: inactive
Activity [29]: 9%
AUC [30]: 285187 µg/L/h
IC50 [31]: 5 nM
growth inhibition (GI) [32]: Dose-dependent effect
Activity [33]: 10.2%
IC50 [34]: 2 nM
